The record followed here is patent US8044198B2, “Sirtuin modulating compounds” (Sirtris Pharmaceuticals, Inc., priority 2005, dated 2011).

The target of the assay is T1, SIRT1 (Homo sapiens, UniProt Q96EB6).
T1 sequence (Q96EB6 1-747): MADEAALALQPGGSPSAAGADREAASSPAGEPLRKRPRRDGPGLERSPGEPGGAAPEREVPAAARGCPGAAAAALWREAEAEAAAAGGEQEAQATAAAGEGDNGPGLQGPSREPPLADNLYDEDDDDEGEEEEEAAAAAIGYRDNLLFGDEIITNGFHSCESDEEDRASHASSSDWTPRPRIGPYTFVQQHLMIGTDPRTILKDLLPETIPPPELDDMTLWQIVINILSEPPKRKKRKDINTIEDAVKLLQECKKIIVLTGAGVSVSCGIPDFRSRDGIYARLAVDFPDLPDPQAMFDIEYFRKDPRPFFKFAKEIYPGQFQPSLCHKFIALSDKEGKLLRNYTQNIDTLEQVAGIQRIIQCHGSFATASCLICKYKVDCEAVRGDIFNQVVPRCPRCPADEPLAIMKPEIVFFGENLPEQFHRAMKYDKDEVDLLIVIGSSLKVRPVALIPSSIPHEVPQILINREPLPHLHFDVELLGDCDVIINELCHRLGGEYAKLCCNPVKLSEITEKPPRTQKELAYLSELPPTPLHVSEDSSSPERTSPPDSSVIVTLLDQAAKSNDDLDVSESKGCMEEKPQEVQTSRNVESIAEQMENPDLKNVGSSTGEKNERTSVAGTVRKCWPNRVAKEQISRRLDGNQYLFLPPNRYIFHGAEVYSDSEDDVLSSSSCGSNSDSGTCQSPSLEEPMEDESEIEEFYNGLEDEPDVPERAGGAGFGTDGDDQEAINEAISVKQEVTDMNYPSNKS
Nature of the assay: SIRT1 mass spectrometry (MS) based deacetylation assay. As to FOLD ACT. MS: test concentration or dose not given here. The format is biochemical. As to conditions: for EC50: SIRT1 activation, mass spectrometry assay, read-out: ED50 MS ASSAY; for FOLD ACT. MS: fold activation of SIRT1, mass spectrometry assay.

Each structure is given as a SMILES string.

Take `COc1ccc(C(=O)Nc2ccccc2-c2nc3ccccn3c2CN2CCNCC2)cc1OC` [Compound 364]: the EC50 is above 150 µM and the “FOLD ACT. MS” value was “A (A (Fold activation >250%))”.
`Cc1nn(-c2ccccc2)nc1C(=O)Nc1ccccc1-c1nc2ccncc2s1` [Compound 390]: the EC50 lay within 5 to 50 µM and the “FOLD ACT. MS” value is given as “B (B (Fold Activation <250%))”.
The corresponding values for `O=C(Nc1ccccc1-c1nc2ccncc2s1)c1cnccn1` [Compound 391] are 5 to 50 µM and “B (B (Fold Activation <250%))”.
The corresponding values for `O=C(Nc1ccccc1-c1nc2ccncc2s1)c1ccc(Oc2ccccc2)nc1` [Compound 392] are 5 to 50 µM and “B (B (Fold Activation <250%))”.
As for `CC(CC(=O)Nc1cccc(-c2nc3ccncc3s2)c1)Oc1ccccc1` (centres unmarked) [Compound 396], the EC50 lay in the range of 5 to 50 µM and the “FOLD ACT. MS” value is recorded as “B (B (Fold Activation <250%))”.
The corresponding values for `CN(C)c1cccc2c(S(=O)(=O)Nc3cccc(-c4nc5ccncc5s4)c3)cccc12` [Compound 398] are 5 to 50 µM and “B (B (Fold Activation <250%))”.
As to `O=c1[nH]c2ccc(S(=O)(=O)Nc3cccc(-c4nc5ccncc5s4)c3)cc2o1` [Compound 399], the EC50 fell in the range of 5 to 50 µM and the “FOLD ACT. MS” value was “B (B (Fold Activation <250%))”.
As for `COc1ccc(C(=O)Nc2cccc(-c3nc4cnccc4s3)c2)c(OC)c1OC` [Compound 401], the EC50 lay in the range of 5 to 50 µM and the “FOLD ACT. MS” value is “B (B (Fold Activation <250%))”.
The corresponding values for `CN(C)c1cccc(C(=O)Nc2cccc(-c3nc4cnccc4s3)c2)c1` [Compound 402] are below 5 µM and “B (B (Fold Activation <250%))”.
Take `CN(C)c1ccc(C(=O)Nc2cccc(-c3nc4cnccc4s3)c2)cc1` [Compound 403]: the EC50 is below 5 µM and the “FOLD ACT. MS” value is given as “B (B (Fold Activation <250%))”.
The corresponding values for `COc1cc(OC)cc(C(=O)Nc2ccccc2-c2nc3cnccc3o2)c1` [Compound 404] are below 5 µM and “B (B (Fold Activation <250%))”.
The corresponding values for `COc1cc(C(=O)Nc2ccccc2-c2nc3cnccc3o2)cc(OC)c1OC` [Compound 405] are below 5 µM and “B (B (Fold Activation <250%))”.
The corresponding values for `CN(C)c1cccc(C(=O)Nc2ccccc2-c2nc3cnccc3o2)c1` [Compound 406] are below 5 µM and “B (B (Fold Activation <250%))”.
`CN(C)c1ccc(C(=O)Nc2ccccc2-c2nc3cnccc3o2)cc1` [Compound 407]: the EC50 was below 5 µM and the “FOLD ACT. MS” value is listed as “B (B (Fold Activation <250%))”.
As to `CN(C)c1cccc(C(=O)Nc2ccc(-c3nc4ccncc4o3)cc2)c1` [Compound 408], the EC50 lay within 51 to 100 µM and the “FOLD ACT. MS” value was “B (B (Fold Activation <250%))”.
On to `COc1ccc(C(=O)Nc2ccccc2-c2nc3cnccc3s2)c(OC)c1OC` [Compound 411], for which the EC50 lay in the range of 5 to 50 µM and the “FOLD ACT. MS” value is “B (B (Fold Activation <250%))”.
Regarding `COc1ccc(C(=O)Nc2ccccc2-c2cnc3ccccc3c2)c(OC)c1` [Compound 413], the EC50 fell in the range of 51 to 100 µM and the “FOLD ACT. MS” value is reported as “B (B (Fold Activation <250%))”.
The corresponding values for `COc1ccc(C(=O)Nc2ccccc2-c2cnc3ccccc3c2)cc1OC` [Compound 414] are 5 to 50 µM and “B (B (Fold Activation <250%))”.
The corresponding values for `COc1cc(C(=O)Nc2ccccc2-c2cnc3ccccc3c2)cc(OC)c1OC` [Compound 415] are 51 to 100 µM and “B (B (Fold Activation <250%))”.
The corresponding values for `COc1ccc(C(=O)Nc2ccccc2-c2nc3cnccc3o2)c(OC)c1OC` [Compound 421] are 5 to 50 µM and “B (B (Fold Activation <250%))”.
For the compound `COc1ccc(C(=O)Nc2ccc(-c3nc4cnccc4o3)s2)c(OC)c1` [Compound 422], the EC50 fell in the range of 5 to 50 µM and the “FOLD ACT. MS” value is given as “B (B (Fold Activation <250%))”.
For the compound `COc1ccc(C(=O)Nc2ccc(-c3nc4cnccc4o3)s2)cc1OC` [Compound 423], the EC50 is below 5 µM and the “FOLD ACT. MS” value is on record as “B (B (Fold Activation <250%))”.
On to `COc1cc(C(=O)Nc2ccc(-c3nc4cnccc4o3)s2)cc(OC)c1OC` [Compound 426], for which the EC50 is below 5 µM and the “FOLD ACT. MS” value is recorded as “B (B (Fold Activation <250%))”.
On to `CN(C)c1cccc(C(=O)Nc2ccc(-c3nc4cnccc4o3)s2)c1` [Compound 427], for which the EC50 is below 5 µM and the “FOLD ACT. MS” value is given as “B (B (Fold Activation <250%))”.
The corresponding values for `COc1ccc(C(=O)Nc2cccc(-c3nc4ccncc4o3)c2)c(OC)c1` [Compound 429] are below 5 µM and “B (B (Fold Activation <250%))”.
The corresponding values for `COc1cc(C(=O)Nc2cccc(-c3nc4ccncc4o3)c2)cc(OC)c1OC` [Compound 430] are 5 to 50 µM and “A (A (Fold activation >250%))”.
With `CN(C)c1ccc(C(=O)Nc2cccc(-c3nc4ccncc4o3)c2)cc1` [Compound 431], the EC50 was 5 to 50 µM and the “FOLD ACT. MS” value is listed as “B (B (Fold Activation <250%))”.
The corresponding values for `COc1cc(C(=O)Nc2ccccc2-c2nc3ccncc3s2)ccc1CN1CCCC1` [Compound 436] are 5 to 50 µM and “A (A (Fold activation >250%))”.
For `COc1ccc(C(=O)Nc2ccccc2-c2cn3cccnc3n2)c(OC)c1` [Compound 437], the EC50 lay in the range of 5 to 50 µM and the “FOLD ACT. MS” value is reported as “B (B (Fold Activation <250%))”.
As to `COc1ccc(C(=O)Nc2ccccc2-c2cn3cccnc3n2)cc1OC` [Compound 438], the EC50 is below 5 µM and the “FOLD ACT. MS” value is given as “A (A (Fold activation >250%))”.
The corresponding values for `COc1cc(C(=O)Nc2ccccc2-c2cn3cccnc3n2)cc(OC)c1OC` [Compound 439] are below 5 µM and “B (B (Fold Activation <250%))”.
In the case of `O=C(Nc1ccccc1-c1cn2c(CN3CCNCC3)csc2n1)c1ccc2ccccc2n1` [Compound 440], the EC50 was below 5 µM and the “FOLD ACT. MS” value was “A (A (Fold activation >250%))”.
For the compound `O=C(Nc1ccccc1-c1cn2c(CN3CCNCC3)csc2n1)c1cnc2ccccc2n1` [Compound 441], the EC50 is below 5 µM and the “FOLD ACT. MS” value is given as “A (A (Fold activation >250%))”.
The corresponding values for `Cc1c(C(=O)Nc2ccccc2-c2cn3c(CN4CCNCC4)csc3n2)oc2ccccc12` [Compound 442] are below 5 µM and “A (A (Fold activation >250%))”.
For `Cc1cc(C(=O)Nc2ccccc2-c2cn3c(CN4CCNCC4)csc3n2)c(C)o1` [Compound 443], the EC50 was in the range of 5 to 50 µM and the “FOLD ACT. MS” value was “A (A (Fold activation >250%))”.
Turning to `CSc1ccc(C(=O)Nc2ccccc2-c2cn3c(CN4CCNCC4)csc3n2)cc1` [Compound 444], the EC50 lay within 5 to 50 µM and the “FOLD ACT. MS” value is recorded as “A (A (Fold activation >250%))”.
Take `O=C(Cc1ccccc1)Nc1ccccc1-c1cn2c(CN3CCNCC3)csc2n1` [Compound 445]: the EC50 was 5 to 50 µM and the “FOLD ACT. MS” value is given as “B (B (Fold Activation <250%))”.
The corresponding values for `O=C(Nc1ccccc1-c1cn2c(CN3CCNCC3)csc2n1)c1cccs1` [Compound 446] are 5 to 50 µM and “B (B (Fold Activation <250%))”.
The corresponding values for `COc1cc(OC)cc(C(=O)Nc2cccc(-c3nc4ccncc4o3)c2)c1` [Compound 451] are 5 to 50 µM and “B (B (Fold Activation <250%))”.
Take `COc1ccc(C(=O)Nc2cccc(-c3nc4ccncc4o3)c2)c(OC)c1OC` [Compound 452]: the EC50 was 5 to 50 µM and the “FOLD ACT. MS” value is recorded as “B (B (Fold Activation <250%))”.
The corresponding values for `CN(C)c1cccc(C(=O)Nc2cccc(-c3nc4ccncc4o3)c2)c1` [Compound 453] are 5 to 50 µM and “B (B (Fold Activation <250%))”.
The corresponding values for `COc1ccc(C(=O)Nc2cccc(-c3nc4ccncc4o3)c2)cc1OC` [Compound 454] are 5 to 50 µM and “B (B (Fold Activation <250%))”.
The corresponding values for `COc1ccc(C(=O)Nc2ccccc2-c2nc3ccncc3o2)c(OC)c1` [Compound 455] are below 5 µM and “B (B (Fold Activation <250%))”.
With `COc1cc(OC)cc(C(=O)Nc2ccccc2-c2nc3ccncc3o2)c1` [Compound 456], the EC50 was below 5 µM and the “FOLD ACT. MS” value is given as “B (B (Fold Activation <250%))”.
As to `COc1cc(C(=O)Nc2ccccc2-c2nc3ccncc3o2)cc(OC)c1OC` [Compound 457], the EC50 was 5 to 50 µM and the “FOLD ACT. MS” value was “B (B (Fold Activation <250%))”.
For the compound `CN(C)c1cccc(C(=O)Nc2ccccc2-c2nc3ccncc3o2)c1` [Compound 458], the EC50 was below 5 µM and the “FOLD ACT. MS” value is given as “B (B (Fold Activation <250%))”.
